Measured values as given in patent publication US4156724A, “N-acylamino-alpha-arylacetamido cephalosporins and antibacterial compositions and methods containing them” (Sumitomo Chemical Company, Limited, priority 1974, dated 1979).
Values after ≈ are worked out from the molar mass of the structure shown.

Assays:
Assay type in all cases: cell-based
[1] = system: Staphylococcus aureus 209 P; experiment: Minimum Inhibitory Concentration, Staphylococcus aureus 209 P; conditions: Staphylococcus aureus 209 P; read-out: Minimum Inhibitory Concentration
Procedure: (§1) anti-microbial activity tests were carried out on the compounds obtained in the Examples.

[2] = system: Staphylococcus aureus FS 289; experiment: Minimum Inhibitory Concentration, Staphylococcus aureus FS 289; conditions: FS289; Staphylococcus aureus FS 289, strain resistant to penicillin; read-out: Minimum Inhibitory Concentration
Procedure: as §1
*Staphylococcus aureus FS 289: strain resistant to penicillin

[3] = system: Escherichia coli NIHJ; experiment: Minimum Inhibitory Concentration, Escherichia coli NIHJ; conditions: Escherichia coli NIHJ; read-out: Minimum Inhibitory Concentration
Procedure: as §1

[4] = system: Klebsiella pneumoniae 602; experiment: Minimum Inhibitory Concentration, Klebsiella pneumoniae 602; conditions: Klebsiella pneumoniae, 602, Klebsiella pneumoniae 602; read-out: Minimum Inhibitory Concentration
Procedure: as §1

[5] = system: Proteus vulgaris HX 19; experiment: Minimum Inhibitory Concentration, Proteus vulgaris HX 19; conditions: HX19; Proteus vulgaris HX 19; read-out: Minimum Inhibitory Concentration
Procedure: as §1

[6] = system: Pseudomonas aeruginosa 104; experiment: Minimum Inhibitory Concentration, Pseudomonas aeruginosa 104; conditions: Pseudomonas aeruginosa 104; read-out: Minimum Inhibitory Concentration
Procedure: as §1

[7] = system: Serratia No. 72; experiment: Minimum Inhibitory Concentration, Serratia No. 72
Procedure: as §1

[8] = system: Enterobacter aerogeneus No. 75; experiment: Minimum Inhibitory Concentration, Enterobacter aerogeneus No. 75; conditions: Enterobacter aerogeneus No. 75; read-out: Minimum Inhibitory Concentration
Procedure: as §1

Cc1nnc(SCC2=C(C(=O)O)N3C(=O)C(NC(=O)C(NC(=O)c4cnc5ccc(N(C)C)nc5c4O)c4ccc(CO)cc4)C3SC2)s1 (stereo not drawn) [Example 107]
MIC [1]: 1.56 mg/L (≈ 2.16 µM) | MIC [2]: 6.25 mg/L (≈ 8.65 µM) | MIC [3]: 3.13 mg/L (≈ 4.33 µM) | MIC [4]: 1.56 mg/L (≈ 2.16 µM) | MIC [5]: 0.1 mg/L (≈ 0.138 µM) | MIC [6]: 6.25 mg/L (≈ 8.65 µM) | MIC [7]: 12.5 mg/L (≈ 17.3 µM) | MIC [8]: 6.25 mg/L (≈ 8.65 µM)

Cn1nnnc1SCC1=C(C(=O)O)N2C(=O)C(NC(=O)C(NC(=O)c3cnc4cncnc4c3O)c3ccc(CO)cc3)C2SC1 (stereo not drawn) [Example 108]
MIC [1]: 1.56 mg/L (≈ 2.35 µM) | MIC [2]: 12.5 mg/L (≈ 18.8 µM) | MIC [3]: 3.13 mg/L (≈ 4.71 µM) | MIC [4]: 3.13 mg/L (≈ 4.71 µM) | MIC [5]: 0.2 mg/L (≈ 0.301 µM) | MIC [6]: 6.25 mg/L (≈ 9.4 µM) | MIC [7]: 25 mg/L (≈ 37.6 µM) | MIC [8]: 6.25 mg/L (≈ 9.4 µM)

CSc1ncc2c(O)c(C(=O)NC(C(=O)NC3C(=O)N4C(C(=O)O)=C(CSc5nnnn5C)CSC34)c3ccc(CO)cc3)cnc2n1 (stereo not drawn) [Example 109]
MIC [1]: 1.56 mg/L (≈ 2.19 µM) | MIC [2]: 12.5 mg/L (≈ 17.6 µM) | MIC [3]: 6.25 mg/L (≈ 8.79 µM) | MIC [4]: 6.25 mg/L (≈ 8.79 µM) | MIC [5]: 0.78 mg/L (≈ 1.1 µM) | MIC [6]: 12.5 mg/L (≈ 17.6 µM) | MIC [7]: 50 mg/L (≈ 70.3 µM) | MIC [8]: 12.5 mg/L (≈ 17.6 µM)

O=C(O)C1=C(CSc2nnc(CO)s2)CSC2C(NC(=O)C(NC(=O)c3cnccc3O)c3ccc(CO)cc3)C(=O)N12 (stereo not drawn) [Example 110]
MIC [1]: 0.78 mg/L (≈ 1.21 µM) | MIC [2]: 6.25 mg/L (≈ 9.69 µM) | MIC [3]: 12.5 mg/L (≈ 19.4 µM) | MIC [4]: 12.5 mg/L (≈ 19.4 µM) | MIC [5]: 0.39 mg/L (≈ 0.605 µM) | MIC [6]: 12.5 mg/L (≈ 19.4 µM) | MIC [7]: 100 mg/L (≈ 155 µM) | MIC [8]: 25 mg/L (≈ 38.8 µM)

O=C(O)C1=C(CSc2ccc(O)nn2)CSC2C(NC(=O)C(NC(=O)c3cnccc3O)c3ccc(CO)cc3)C(=O)N12 (stereo not drawn) [Example 111]
MIC [1]: 0.78 mg/L (≈ 1.25 µM) | MIC [2]: 6.25 mg/L (≈ 10 µM) | MIC [3]: 12.5 mg/L (≈ 20 µM) | MIC [4]: 6.25 mg/L (≈ 10 µM) | MIC [5]: 0.39 mg/L (≈ 0.624 µM) | MIC [6]: 12.5 mg/L (≈ 20 µM) | MIC [7]: 100 mg/L (≈ 160 µM) | MIC [8]: 12.5 mg/L (≈ 20 µM)

Cn1nnnc1SCC1=C(C(=O)O)N2C(=O)C(NC(=O)C(NC(=O)c3cccnc3O)c3ccc(CO)cc3)C2SC1 (stereo not drawn) [Example 112]
MIC [1]: 0.78 mg/L (≈ 1.27 µM) | MIC [2]: 12.5 mg/L (≈ 20.4 µM) | MIC [3]: 12.5 mg/L (≈ 20.4 µM) | MIC [4]: 6.25 mg/L (≈ 10.2 µM) | MIC [5]: 0.78 mg/L (≈ 1.27 µM) | MIC [6]: 12.5 mg/L (≈ 20.4 µM) | MIC [7]: 100 mg/L (≈ 163 µM) | MIC [8]: 25 mg/L (≈ 40.8 µM)

CC(=O)OCC1=C(C(=O)O)N2C(=O)C(NC(=O)[C@H](NC(=O)c3cnccc3O)c3ccc(O)cc3)C2SC1 (stereo partly drawn) [Example 113, 7-[D-α-(4-Hydroxypyridine-3-carbonamido)-α-p-hydroxyphenylacetamido]cephalosporanic Acid]
MIC [1]: 0.39 mg/L (≈ 0.719 µM) | MIC [2]: 3.13 mg/L (≈ 5.77 µM) | MIC [3]: 12.5 mg/L (≈ 23 µM) | MIC [4]: 12.5 mg/L (≈ 23 µM) | MIC [5]: 0.2 mg/L (≈ 0.369 µM) | MIC [6]: 6.25 mg/L (≈ 11.5 µM) | MIC [7]: > 200 mg/L | MIC [8]: 25 mg/L (≈ 46.1 µM)

CC(=O)OCC1=C(C(=O)O)N2C(=O)C(NC(=O)C(NC(=O)c3cnccc3O)c3cccc(O)c3)C2SC1 (stereo not drawn) [Example 114]
MIC [1]: 0.39 mg/L (≈ 0.719 µM) | MIC [2]: 6.25 mg/L (≈ 11.5 µM) | MIC [3]: 12.5 mg/L (≈ 23 µM) | MIC [4]: 12.5 mg/L (≈ 23 µM) | MIC [5]: 0.39 mg/L (≈ 0.719 µM) | MIC [6]: 6.25 mg/L (≈ 11.5 µM) | MIC [7]: > 200 mg/L | MIC [8]: 25 mg/L (≈ 46.1 µM)

CC(=O)OCC1=C(C(=O)O)N2C(=O)C(NC(=O)C(NC(=O)c3cccnc3O)c3ccc(O)cc3)C2SC1 (stereo not drawn) [Example 115]
MIC [1]: 0.39 mg/L (≈ 0.719 µM) | MIC [2]: 6.25 mg/L (≈ 11.5 µM) | MIC [3]: 12.5 mg/L (≈ 23 µM) | MIC [4]: 25 mg/L (≈ 46.1 µM) | MIC [5]: 0.78 mg/L (≈ 1.44 µM) | MIC [6]: 12.5 mg/L (≈ 23 µM) | MIC [7]: > 200 mg/L | MIC [8]: 25 mg/L (≈ 46.1 µM)

CC(=O)OCC1=C(C(=O)O)N2C(=O)C(NC(=O)[C@H](NC(=O)c3ccnnc3O)c3ccc(O)cc3)C2SC1 (stereo partly drawn) [Example 116]
MIC [1]: 0.39 mg/L (≈ 0.718 µM) | MIC [2]: 3.13 mg/L (≈ 5.76 µM) | MIC [3]: 12.5 mg/L (≈ 23 µM) | MIC [4]: 6.25 mg/L (≈ 11.5 µM) | MIC [5]: 0.2 mg/L (≈ 0.368 µM) | MIC [6]: 6.25 mg/L (≈ 11.5 µM) | MIC [7]: > 200 mg/L | MIC [8]: 25 mg/L (≈ 46 µM)

CC(=O)OCC1=C(C(=O)O)N2C(=O)C(NC(=O)[C@H](NC(=O)c3cnccc3O)c3ccc(O)c(Cl)c3)C2SC1 (stereo partly drawn) [Example 117]
MIC [1]: 0.39 mg/L (≈ 0.676 µM) | MIC [2]: 6.25 mg/L (≈ 10.8 µM) | MIC [3]: 12.5 mg/L (≈ 21.7 µM) | MIC [4]: 12.5 mg/L (≈ 21.7 µM) | MIC [5]: 0.2 mg/L (≈ 0.347 µM) | MIC [6]: 6.25 mg/L (≈ 10.8 µM) | MIC [7]: 100 mg/L (≈ 173 µM) | MIC [8]: 25 mg/L (≈ 43.3 µM)

CC(=O)OCC1=C(C(=O)O)N2C(=O)C(NC(=O)[C@H](NC(=O)c3cncnc3O)c3ccc(O)cc3)C2SC1 (stereo partly drawn) [Example 118]
MIC [1]: 0.39 mg/L (≈ 0.718 µM) | MIC [2]: 6.25 mg/L (≈ 11.5 µM) | MIC [3]: 12.5 mg/L (≈ 23 µM) | MIC [4]: 25 mg/L (≈ 46 µM) | MIC [5]: 0.39 mg/L (≈ 0.718 µM) | MIC [6]: 6.25 mg/L (≈ 11.5 µM) | MIC [7]: > 200 mg/L | MIC [8]: 25 mg/L (≈ 46 µM)
